Assay results: article PMC9182199, “Borylated 2,3,4,5-Tetrachlorophthalimide and Their 2,3,4,5-Tetrachlorobenzamide Analogues: Synthesis, Their Glycosidase Inhibition and Anticancer Properties in View to Boron Neutron Capture Therapy” (Molecules, 2022)

Assays:
[1] = system: rat intestinal maltase α-glucosidase; assay: Glycosidase inhibition, laboratory 1: rat intestinal maltase; assay type: biochemical; settings: methanol; for IC50: rat intestinal maltase α-glucosidase
From the text: (§1) The enzymes α-glucosidase (from yeast), β-glucosidases (from almond and bovine liver), α-galactosidase (from coffee beans), β-galactosidase (from bovine liver), α-mannosidase (from Jack bean), β-mannosidase (from snail), α-L-rhamnosidase (from Penicillium decumbens), α-L-fucosidase (from bovine kidney), trehalase (from porcine kidney), β-glucuronidases (from E. coli and bovine liver), amyloglucosidase (from A. niger), para-nitrophenyl glycosides, and various disaccharides were purchased from Sigma-Aldrich Co (St Louis, MO, USA).
(§2) Brush border membranes were prepared from the rat small intestine according to the method of Kessler et al. and were assayed at pH 6.8 for rat intestinal maltase using maltose. For rat intestinal maltase, porcine kidney trehalase, and A. niger amyloglucosidase activities, the reaction mixture contained 25 mM maltose and the appropriate amount of enzyme, and the incubations were performed for 10–30 min at 37 °C. The reaction was stopped by heating at 100 °C for 3 min. After centrifugation (600× g; 10 min), the resulting reaction mixture was added to the Glucose CII-test Wako (Wako Pure Chemical Ind., Osaka, Japan). The absorbance at 505 nm was measured to determine the amount of the released D-glucose. Other glycosidase activities were determined using an appropriate para-nitrophenyl glycoside as substrate at the optimum pH of each enzyme. The reaction mixture contained 2 mM of the substrate and the appropriate amount of enzyme. The reaction was stopped by addition of 400 mM Na2CO3. The released para-nitrophenol was measured spectrometrically at 400 nm. All reactions run in methanol.

snail β-mannosidase = assay: Glycosidase inhibition, laboratory 1: snail β-mannosidase; assay type: biochemical; settings: methanol
From the text: as §1, §2

Du145 = assay: MTT cell growth inhibition: Du145; assay type: cell-based; settings: 72 h; for inhibition at 25 µM: Homo sapiens, DU-145, Du145 prostate carcinoma, read-out: Percentage (%) Cell Growth Inhibition in response to 25 µM of Drug; for Percentage (%) Cell Growth Inhibition in response to 25 µM of Drug: Du145 prostate carcinoma
Procedure: (§3) All test agents were prepared as stock solutions (20 mM) in dimethyl sulfoxide (DMSO) and stored at −20 °C. Cell lines used in the study included HT29 (colorectal carcinoma); U87, SJ-G2, (glioblastoma); MCF-7, (breast carcinoma); A2780 (ovarian carcinoma); H460 (lung carcinoma); A431 (skin carcinoma); Du145 (prostate carcinoma); BE2-C (neuroblastoma); MiaPaCa-2 (pancreatic carcinoma); and SMA560 (spontaneous murine astrocytoma), together with the one non-tumour-derived normal breast cell line (MCF10A). All cell lines were incubated in a humidified atmosphere 5% CO2 at 37 °C. The cancer cell lines were maintained in Dulbecco’s modified Eagle’s medium (DMEM; Sigma, Australia) supplemented with foetal bovine serum (10%), sodium pyruvate (10 mM), penicillin (100 IUmL^−1), streptomycin (100 µg mL^−1) and L-glutamine (2 mM).
(§4) Growth inhibition was determined by plating cells in duplicate in medium (100 µL) at a density of 2500–4000 cells per well in 96-well plates. On day 0 (24 h after plating), when the cells were in logarithmic growth, medium (100 µL) with or without the test agent was added to each well. After 72 h drug exposure, growth inhibitory effects were evaluated using the MTT (3-(4,5-dimethyltiazol-2-yl)-2,5-diphenyltetrazolium bromide) assay and absorbance read at 540 nm. The percentage growth inhibition was calculated at a fixed concentration of 25 µM, based on the difference between the optical density values on day 0 and those at the end of drug exposure. Each data point is the mean ± the standard error of the mean (SEM) calculated from three replicates which were performed on separate occasions and separate cell line passages.

H460 = assay: MTT cell growth inhibition: H460; assay type: cell-based; settings: H460 lung carcinoma; for inhibition at 25 µM / GI50: Homo sapiens; for inhibition at 25 µM: NCI-H460, read-out: Percentage (%) Cell Growth Inhibition in response to 25 µM of Drug; for inhibition at 25 µM / Percentage (%) Cell Growth Inhibition in response to 25 µM of Drug: 72 h, MTT; for GI50: NCI-H460, read-out: GI50 = Concentration (µM) that inhibits cell growth by 50%, dose response
Procedure: as §3, §4

[2] = system: Penicillium decumbens α-L-rhamnosidase; assay: Glycosidase inhibition, laboratory 1: α-L-rhamnosidase; assay type: biochemical; settings: methanol
From the text: as §1, §2

BE2-C = assay: MTT cell growth inhibition: BE2-C; assay type: cell-based; settings: BE2-C neuroblastoma, 72 h; for inhibition at 25 µM: Homo sapiens, BE(2)-C, read-out: Percentage (%) Cell Growth Inhibition in response to 25 µM of Drug
Procedure: as §3, §4

[3] = system: bovine liver β-galactosidase; assay: Glycosidase inhibition, laboratory 1: bovine liver β-galactosidase; assay type: biochemical; settings: methanol
From the text: as §1, §2

MIA-Pa-Ca2 = assay: MTT cell growth inhibition: MIA-Pa-Ca2; assay type: cell-based; settings: 72 h; for inhibition at 25 µM: Homo sapiens, MIA PaCa-2, MIA-Pa-Ca2 pancreatic carcinoma, read-out: Percentage (%) Cell Growth Inhibition in response to 25 µM of Drug; for Percentage (%) Cell Growth Inhibition in response to 25 µM of Drug: MIA-Pa-Ca2 pancreatic carcinoma
Procedure: as §3, §4

Jack bean α-mannosidase = target: T1, Jack bean α-mannosidase (Canavalia ensiformis, UniProt C0HJB3); assay: Glycosidase inhibition, laboratory 1: Jack bean α-mannosidase; assay type: biochemical; settings: methanol
T1 construct: purchased Sigma-Aldrich Co
T1 sequence (C0HJB3 1-981): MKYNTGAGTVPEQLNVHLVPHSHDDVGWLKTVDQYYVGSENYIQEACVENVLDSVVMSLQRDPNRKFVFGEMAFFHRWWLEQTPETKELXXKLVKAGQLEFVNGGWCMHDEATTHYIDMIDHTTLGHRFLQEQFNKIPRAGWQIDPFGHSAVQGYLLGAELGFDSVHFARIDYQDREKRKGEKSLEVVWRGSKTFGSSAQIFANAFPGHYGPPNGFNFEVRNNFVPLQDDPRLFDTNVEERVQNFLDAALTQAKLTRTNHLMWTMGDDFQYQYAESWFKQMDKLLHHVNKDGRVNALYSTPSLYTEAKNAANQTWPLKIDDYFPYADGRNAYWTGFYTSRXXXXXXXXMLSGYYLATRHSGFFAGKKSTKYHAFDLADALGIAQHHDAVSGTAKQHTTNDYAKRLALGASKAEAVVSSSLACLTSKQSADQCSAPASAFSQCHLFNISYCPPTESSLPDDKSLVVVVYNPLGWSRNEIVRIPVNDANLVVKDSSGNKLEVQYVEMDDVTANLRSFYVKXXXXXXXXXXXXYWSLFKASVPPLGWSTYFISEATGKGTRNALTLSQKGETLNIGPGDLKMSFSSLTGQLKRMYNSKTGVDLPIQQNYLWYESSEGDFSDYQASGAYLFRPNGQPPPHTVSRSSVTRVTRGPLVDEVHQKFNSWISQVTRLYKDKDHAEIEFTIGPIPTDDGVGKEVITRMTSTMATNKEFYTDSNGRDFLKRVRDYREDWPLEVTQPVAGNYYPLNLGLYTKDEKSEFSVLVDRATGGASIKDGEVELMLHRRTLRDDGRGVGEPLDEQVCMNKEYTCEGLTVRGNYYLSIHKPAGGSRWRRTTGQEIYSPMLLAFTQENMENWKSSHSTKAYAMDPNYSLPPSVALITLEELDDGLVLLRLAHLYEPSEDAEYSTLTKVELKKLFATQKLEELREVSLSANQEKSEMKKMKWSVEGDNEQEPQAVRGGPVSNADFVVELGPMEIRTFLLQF
From the text: as §1, §2

yeast α-glucosidase = target: T2, yeast α-glucosidase (Saccharomyces cerevisiae, UniProt P53341); assay: Glycosidase inhibition, laboratory 1: yeast α-glucosidase; assay type: biochemical; settings: methanol
T2 construct: purchased Sigma
From the text: as §1, §2

T2 sequence (P53341 whole entry): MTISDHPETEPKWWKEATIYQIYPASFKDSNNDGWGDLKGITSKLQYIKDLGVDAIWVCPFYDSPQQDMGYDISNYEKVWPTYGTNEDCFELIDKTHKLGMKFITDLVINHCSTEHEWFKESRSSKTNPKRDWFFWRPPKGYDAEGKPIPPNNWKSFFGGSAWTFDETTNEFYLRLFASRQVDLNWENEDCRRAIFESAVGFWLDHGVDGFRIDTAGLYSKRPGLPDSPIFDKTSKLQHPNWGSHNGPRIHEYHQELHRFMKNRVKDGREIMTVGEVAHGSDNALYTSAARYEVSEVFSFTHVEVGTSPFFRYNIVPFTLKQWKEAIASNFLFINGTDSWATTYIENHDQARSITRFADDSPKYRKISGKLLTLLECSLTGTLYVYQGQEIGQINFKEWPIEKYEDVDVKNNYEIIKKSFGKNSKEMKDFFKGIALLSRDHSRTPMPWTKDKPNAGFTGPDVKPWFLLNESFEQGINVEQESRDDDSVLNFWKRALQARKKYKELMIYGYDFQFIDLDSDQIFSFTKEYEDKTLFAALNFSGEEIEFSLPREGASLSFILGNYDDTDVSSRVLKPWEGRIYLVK

Molecule | inhibition % at 100 μM ([1]; rat intestinal maltase) | inhibition % at 100 μM (snail β-mannosidase) | inhibition at 25 µM (Du145) [%] | inhibition at 25 µM (H460) [%] | inhibition % at 100 μM [2] | inhibition at 25 µM (BE2-C) [%] | inhibition at 25 µM (MIA-Pa-Ca2) [%] | GI50 (H460) [µM] | IC50 [1] [µM] | inhibition at 100 µM (Jack bean α-mannosidase; 100 μM) [%] | inhibition at 100 µM (yeast α-glucosidase; 100 μM) [%] | IC50 [3] [µM] | other results
N[C@@H](Cc1ccc(B(O)O)cc1)C(=O)O [BPA, 4-borono-L-phenylalanine, reference compound] | ^cNI ^d(0%) | ^cNI ^d (2.1%) | 19 ± 10 | 7 ± 8 | ^cNI ^d (0%) | 13 ± 10 | 3 ± 3 |  |  |  |  |  | inhibition % at 100 μM [3]: ^cNI ^d (10.9%)
N[C@@H](Cc1ccc(B(O)O)cc1)C(=O)O [^10B-BPA, reference compound] | ^cNI ^d (0%) | ^cNI ^d (0.3%) |  |  | ^cNI ^d (0%) |  |  |  |  |  |  |  | Percentage (%) Cell Growth Inhibition in response to 25 µM of Drug (Du145): 15 ± 9%; inhibition % at 100 μM (Jack bean α-mannosidase; 100 μM): ^cNI ^d (0%); inhibition % at 100 μM (yeast α-glucosidase; 100 μM): ^cNI ^d (0%); Percentage (%) Cell Growth Inhibition in response to 25 µM of Drug (H460): 8 ± 5%; Percentage (%) Cell Growth Inhibition in response to 25 µM of Drug (BE2-C): 10 ± 6%; inhibition % at 100 μM [3]: ^cNI ^d (0%); Percentage (%) Cell Growth Inhibition in response to 25 µM of Drug (MIA-Pa-Ca2): 11 ± 3%
CC1(C)OB(c2cccc(CN3C(=O)c4c(Cl)c(Cl)c(Cl)c(Cl)c4C3=O)c2)OC1(C)C [meta 3, 4,5,6,7-Tetrachloro-2-(3-(4,4,5,5-tetramethyl-1,3,2-dioxaborolan-2-yl)benzyl)isoindoline-1,3-dione] |  |  | 43 ± 13 | 42 ± 6 |  | 45 ± 2 | 29 ± 2 | 33 ± 2.3 |  |  |  |  | inhibition % at 10 μM ([1]; rat intestinal maltase): ^cNI ^d (22.1%); inhibition % at 10 μM (snail β-mannosidase): ^cNI ^d (1.1%); inhibition at 10 µM (Jack bean α-mannosidase): 2.7%; inhibition at 10 µM (yeast α-glucosidase): 0%; inhibition % at 10 μM [2]: ^cNI ^d (0%); inhibition % at 10 μM [3]: ^cNI ^d (12.4%)
CC1(C)OB(c2cccc(NC(=O)c3cc(Cl)c(Cl)c(Cl)c3Cl)c2)OC1(C)C [meta 5, 2,3,4,5-tetrachloro-N-(3-(4,4,5,5-tetramethyl-1,3,2-dioxaborolan-2-yl)phenyl)benzamide] |  | ^aNI ^b (39.1%) | < 0 | 18 ± 6 | ^aNI ^b (2.2%) | 3 ± 4 | 8 ± 5 |  | 274 | 7.6 | 12.8 | 213 | 
CC1(C)OB(c2ccccc2NC(=O)c2cc(Cl)c(Cl)c(Cl)c2Cl)OC1(C)C [ortho 5, 2,3,4,5-Tetrachloro-N-(2-(4,4,5,5-tetramethyl-1,3,2-dioxaborolan-2-yl)phenyl)benzamide] |  |  | > 100 | > 100 |  | > 100 | 100 ± 3 | 13 ± 1 |  |  |  |  | inhibition % at 10 μM ([1]; rat intestinal maltase): ^cNI ^d(3%); inhibition % at 10 μM (snail β-mannosidase): ^cNI ^d (0%); inhibition at 10 µM (Jack bean α-mannosidase): 3.4%; inhibition at 10 µM (yeast α-glucosidase): 0%; inhibition % at 10 μM [2]: ^cNI ^d (0%); inhibition % at 10 μM [3]: ^cNI ^d (0%)
CC1(C)OB(c2ccccc2CNC(=O)c2cc(Cl)c(Cl)c(Cl)c2Cl)OC1(C)C [ortho 8, 2,3,4,5-tetrachloro-N-(2-(4,4,5,5-tetramethyl-1,3,2-dioxaborolan-2-yl)benzyl)benzamide] |  | ^aNI ^b (39%) | < 0 | 0 | ^aNI ^b (6.2%) | 2 ± 5 | 6 ± 10 |  | 305 | 12.5 | 0 | 278 | 
CC1(C)OB(c2ccc(CN3C(=O)c4c(Cl)c(Cl)c(Cl)c(Cl)c4C3=O)cc2)OC1(C)C [para 3, 4,5,6,7-Tetrachloro-2-(4-(4,4,5,5-tetramethyl-1,3,2-dioxaborolan-2-yl)benzyl)isoindoline-1,3-dione] | ^aNI ^b (12.2%) | ^aNI ^b (0%) | > 100 | 100 ± 2 | ^aNI ^b (0%) | > 100 | 98 ± 3 | 13 ± 0.33 |  | 0 | 0 |  | 
CC1(C)OB(c2ccc(NC(=O)c3cc(Cl)c(Cl)c(Cl)c3Cl)cc2)OC1(C)C [para 5, 2,3,4,5-tetrachloro-N-(4-(4,4,5,5-tetramethyl-1,3,2-dioxaborolan-2-yl)phenyl)benzamide] |  | ^aNI ^b (30.4%) | 1 ± 13 | 54 ± 2 | ^aNI ^b (14.4%) | 54 ± 1 | 52 ± 1 |  | 188 | 19.3 | 0 | 333 | 
Borocaptate sodium [BSH, reference compound] |  |  |  |  |  |  |  |  |  |  |  |  | inhibition % at 1000 μM ([1]; rat intestinal maltase, 1000 μM): ^aNI ^b(0%); inhibition % at 1000 μM (snail β-mannosidase; 1000 μM): ^aNI ^b (19.2%); Percentage (%) Cell Growth Inhibition in response to 25 µM of Drug (Du145): 0 ± 8%; inhibition % at 1000 μM (Jack bean α-mannosidase; 1000 μM): ^aNI ^b (7.9%); inhibition % at 1000 μM (yeast α-glucosidase; 1000 μM): ^aNI ^b(6.9%); Percentage (%) Cell Growth Inhibition in response to 25 µM of Drug (H460): 8 ± 2%; inhibition % at 1000 μM ([2]; 1000 μM): ^aNI ^b (0.2%); Percentage (%) Cell Growth Inhibition in response to 25 µM of Drug (BE2-C): 10 ± 6%; inhibition % at 1000 μM ([3]; 1000 μM): ^aNI ^b (0%); Percentage (%) Cell Growth Inhibition in response to 25 µM of Drug (MIA-Pa-Ca2): 2 ± 6%
